Where two headings read alike, the source gives them in different places.
Tests used:
HCT116 (G13D) = experiment: CCK-8 cell proliferation assay, HCT116 cells; type: cell-based; settings: Homo sapiens, HCT-116, KRAS-G13D
Source text: (§1) It has been reported that Panc1 is a KRAS-G12D-mutated human pancreatic cell and that A549 is a KRAS WT cell; meanwhile, HCT116 cells carry the KRAS-G13D mutation. Therefore, we used these cell lines to analyze the compounds’ anticancer activity and selectivity.

Panc1 (G12D) = experiment: CCK-8 cell proliferation assay, Panc1 cells; type: cell-based, human; settings: for IC50: Homo sapiens, PANC-1, Panc1 cells, KRAS-G12D, CCK-8; for selectivity index (SI): Panc1 (G12D) over wild-type cells, fold
Source text: as §1

A549 (WT) = experiment: CCK-8 cell proliferation assay, A549 cells; type: cell-based; settings: Homo sapiens, KRAS wild-type
Source text: as §1

tumor = test system: tumor; parameters: method as in PMID 38197882; settings: subcutaneous administration once a day for 22 days; cited from earlier work
AGS (G12D) = experiment: CCK-8 cell proliferation assay, AGS cells; type: cell-based; settings: Homo sapiens, KRAS-G12D, antiproliferative
Description: as §1
(§2) After we obtained 26a and 26b, cell proliferation experiments were conducted using cell lines carrying KRAS-G12D mutations, and the results are shown in Table 2. […] In the future, more types of linkers can be designed to adjust the lipophilic–hydrophilic balance coefficient of the molecule to optimize its membrane permeability and protein degradation ability. In addition, it should be acknowledged that only two cancer cell lines were selected for testing in this experiment, which is insufficient to comprehensively evaluate these PROTACs. This is also one of the limitations of this experiment.

AGS = settings: Figure 1; cited from earlier work
Panc 04.03 = settings: Figure 1; cited from earlier work
ASPC-1 [1] = experiment: Cell proliferation assay, ASPC-1 cells; type: cell-based; settings: Homo sapiens, ASPC1, KRAS-G12D, antiproliferative
Description: as §2

AsPc-1 [2] = settings: Figure 1, cited from earlier work
KRAS-G12D = KRAS-G12D (Homo sapiens, UniProt P01116, G12D); experiment: KRAS-G12D enzyme inhibition assay (GTPase activity assay)
Sequence of KRAS-G12D (P01116 1-188 isoform P01116-2 G12D): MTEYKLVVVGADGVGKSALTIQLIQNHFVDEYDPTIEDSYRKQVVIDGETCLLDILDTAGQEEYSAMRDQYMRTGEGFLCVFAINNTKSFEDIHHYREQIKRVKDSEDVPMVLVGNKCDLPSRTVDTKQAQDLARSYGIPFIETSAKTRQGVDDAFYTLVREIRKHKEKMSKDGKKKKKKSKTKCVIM

CT26 = test system: CT26; parameters: method as in PMID 35276423; settings: Figure 1; cited from earlier work
Panc-1 = settings: Figure 1; cited from earlier work
KC = test system: KC; parameters: method as in PMID 35075146; settings: Figure 1; cited from earlier work
[3] = KRAS-G12D inhibition IC50, enzymatic inhibition

| IC50 (HCT116 (G13D)) [µM] | IC50 (Panc1 (G12D)) [µM] | IC50 (A549 (WT)) [µM] | Compound | further results |
| --- | --- | --- | --- | --- |
| > 20 | > 20 | 7.48 ± 0.19 | CN1CCCN(c2nc3c(c(N4CCNCC4CO)n2)CCN(C(=O)c2ccc(F)c4ccccc24)C3)CC1 (centres unmarked) [Compound 10d, (4-Fluoronaphthalen-1-yl)(4-(2-(hydroxymethyl)piperazin-1-yl)-2-(4-methyl-1,4-diazepan-1-yl)-5,8-dihydropyrido[3,4-d]pyrimidin-7(6H)-yl)methanone] | – |
| 12.6 ± 0.47 | 0.39 ± 0.05 | 12.7 ± 0.98 | C#Cc1c(F)ccc2cc(O)cc(-c3ncc4c(N5CC6CCC(C5)N6)nc(OC[C@@]56CCCN5C[C@H](F)C6)nc4c3F)c12 [MRTX1133, reference compound] | tumor inhibition rate (tumor): 89.1%; IC50 (AGS (G12D)): 1.46 ± 0.18 µM; IC50 (AGS): 6 nM; IC50 (Panc 04.03): 10 nM; IC50 (ASPC-1 [1]): < 0.1 µM |
| – | – | – | CCc1c(F)ccc2cc(O)cc(-c3ncc4c(N5CC6CCC(C5)N6)nc(OC[C@@H]5CCCN5CCCCOCC(=O)N[C@H](C(=O)N5C[C@H](O)C[C@H]5C(=O)N[C@@H](C)c5ccc(-c6scnc6C)cc5)C(C)(C)C)nc4c3F)c12 [Compound 8o] | tumor inhibition rate (tumor): 68.6%; IC50 (AGS): 31 nM; IC50 (AsPc-1 [2]): 60 nM |
| 7.12 ± 0.45 | 5.1 ± 0.32 | 12.9 ± 0.38 | O=C(c1ccc(F)c2ccccc12)N1CCc2c(nc(N3CCN4CCC3CC4)nc2N2CCN3CCC2CC3)C1 [Compound 10g, (2,4-Di(1,4-diazabicyclo[3.2.2]nonan-4-yl)-5,8-dihydropyrido[3,4-d]pyrimidin-7(6H)-yl)(4-fluoronaphthalen-1-yl)methanone] | – |
| – | – | – | N#Cc1c(N)sc2c(F)ccc(-c3c(C(F)(F)F)cc4c(N5CC6CCC(C5)N6)nc(OC[C@@]56CCCN5C[C@H](F)C6)nc4c3F)c12 [ERAS-5024] | IC50 (AsPc-1 [2]; 3D, CTG): 4 nM |
| 11.9 ± 1.59 | > 20 | 12.8 ± 1.84 | CN1CCCN(c2nc3c(c(N4CCNCC4(C)C)n2)CCN(C(=O)c2ccc(F)c4ccccc24)C3)CC1 [Compound 10e, (4-(2,2-Dimethylpiperazin-1-yl)-2-(4-methyl-1,4-diazepan-1-yl)-5,8-dihydropyrido[3,4-d]pyrimidin-7(6H)-yl)(4-fluoronaphthalen-1-yl)methanone] | – |
| – | – | – | COc1cccc(C(F)(F)F)c1-c1cc2c(N3CC4CCC(C3)N4)ncnc2s1 [KD-8] | IC50 (CT26): 2000 nM; IC50 (Panc-1): 2300 nM |
| 11.2 ± 0.94 | 5.87 ± 0.37 | 7.89 ± 0.17 | CN1CCCN(c2nc3c(c(N4CCNCC4)n2)CCN(C(=O)c2ccc(F)c4ccccc24)C3)CC1 [Compound 10b, (4-Fluoronaphthalen-1-yl)(2-(4-methyl-1,4-diazepan-1-yl)-4-(piperazin-1-yl)-5,8-dihydropyrido[3,4-d]pyrimidin-7(6H)-yl)methanone] | – |
| – | – | – | Cc1cccc2cccc(N3CCc4c(nc(OC[C@@H]5CCCN5C)nc4N4CC5CCC(C4)N5)C3)c12 [TH-Z835] | IC50 (KC): < 500 nM; IC50 (Panc-1): < 2000 nM |
| 14.5 ± 1.22 | 5.96 ± 0.64 | > 20 | CCN1CCC[C@H]1CNc1nc(NC(=O)c2cccc3ccccc23)cc(N2CCNCC2)n1 [Compound 10j, (S)-N-(2-(((1-Ethylpyrrolidin-2-yl)methyl)amino)-6-(piperazin-1-yl)pyrimidin-4-yl)-1-naphthamide] | – |
| 12.6 ± 1.01 | 6.17 ± 0.2 | > 20 | CN1CCCN(c2nc3c(c(N4CC(N)C4)n2)CCN(C(=O)c2ccc(F)c4ccccc24)C3)CC1 [Compound 10a, (4-(3-Aminoazetidin-1-yl)-2-(4-methyl-1,4-diazepan-1-yl)-5,8-dihydropyrido[3,4-d]pyrimidin-7(6H)-yl)(4-fluoronaphthalen-1-yl)methanone] | – |
| – | – | – | C#Cc1c(F)ccc2cc(O)cc(-c3ncc4c(N5C[C@H]6CC[C@@H](C5)N6)nc(N5CCCN(CCCCCC(=O)N[C@H](C(=O)N6C[C@H](O)C[C@H]6C(=O)N[C@@H](C)c6ccc(-c7scnc7C)cc6)C(C)(C)C)CC5)nc4c3F)c12 [Compound 26b, (2S,4R)-1-((S)-2-(6-(4-(4-((1R,5S)-3,8-Diazabicyclo[3.2.1]octan-3-yl)-7-(8-ethynyl-7-fluoro-3-hydroxynaphthalen-1-yl)-8-fluoropyrido[4,3-d]pyrimidin-2-yl)-1,4-diazepan-1-yl)hexanamido)-3,3-dimethylbutanoyl)-4-hydroxy-N-((S)-1-(4-(4-methylthiazol-5-yl)phenyl)ethyl)pyrrolidine-2-carboxamide] | IC50 (ASPC-1 [1]): 5.09 ± 0.89 µM |
| – | – | – | C#Cc1c(F)ccc2cc(O)cc(-c3ncc4c(N5C[C@H]6CC[C@@H](C5)N6)nc(N5CCCN(CCOCCNc6cccc7c6C(=O)N(C6CCC(=O)NC6=O)C7=O)CC5)nc4c3F)c12 (stereo partly drawn) [Compound 26a, 4-((2-(2-(4-(4-((1R,5S)-3,8-Diazabicyclo[3.2.1]octan-3-yl)-7-(8-ethynyl-7-fluoro-3-hydroxynaphthalen-1-yl)-8-fluoropyrido[4,3-d]pyrimidin-2-yl)-1,4-diazepan-1-yl)ethoxy)ethyl)amino)-2-(2,6-dioxopiperidin-3-yl)isoindoline-1,3-dione] | IC50 (AGS (G12D)): ~3 µM; IC50 (ASPC-1 [1]): > 10 µM |
| > 20 | > 20 | > 20 | CN1CCCN(c2nc3c(c(N4CCNCC4CO)n2)CCN(Cc2ccccc2)C3)CC1 (centres unmarked) [Compound 10h, (1-(7-Benzyl-2-(4-methyl-1,4-diazepan-1-yl)-5,6,7,8-tetrahydropyrido [3,4-d]pyrimidin-4-yl)piperazin-2-yl)methanol] | – |
| 10.1 ± 0.31 | 3.48 ± 0.22 | > 20 | CN1CCCN(c2nc3c(c(N4CCCN(C)CC4)n2)CCN(C(=O)c2ccc(F)c4ccccc24)C3)CC1 [Compound 10f, (2,4-Bis(4-methyl-1,4-diazepan-1-yl)-5,8-dihydropyrido[3,4-d]pyrimidin-7(6H)-yl)(4-fluoronaphthalen-1-yl)methanone] | selectivity index (SI) (Panc1 (G12D)): 5.7 |

| Compound | IC50 (HCT116 (G13D)) [µM] | IC50 (Panc1 (G12D)) [µM] | IC50 (A549 (WT)) [µM] | further results |
| --- | --- | --- | --- | --- |
| C#Cc1c(F)ccc2cc(O)cc(-c3ncc4c(N5C[C@H]6CC[C@@H](C5)N6)nc(N5CCCN(C)CC5)nc4c3F)c12 [Compound 10k, 4-(4-((1R,5S)-3,8-Diazabicyclo[3.2.1]octan-3-yl)-8-fluoro-2-(4-methyl-1,4-diazepan-1-yl)pyrido[4,3-d]pyrimidin-7-yl)-5-ethynyl-6-fluoronaphthalen-2-ol] | 7.87 ± 0.16 | 11.5 ± 0.41 | 14.2 ± 2.15 | IC50 (AGS (G12D)): 2.22 ± 0.53 µM; IC50 (KRAS-G12D; [3]): 9 nM; IC50 (KRAS-G12D; KRAS-G12D inhibitory activity IC50 (nM), Table S1): 9.3 nM |
| Cc1cccc2cccc(N3CCc4c(nc(N5CCCN(C)CC5)nc4N4C[C@H]5CC[C@@H](C4)N5)C3)c12 [Compound 10i, 4-((1R,5S)-3,8-Diazabicyclo[3.2.1]octan-3-yl)-2-(4-methyl-1,4-diazepan-1-yl)-7-(8-methylnaphthalen-1-yl)-5,6,7,8-tetrahydropyrido[3,4-d]pyrimidine] | 4.51 ± 0.21 | 3.92 ± 0.58 | 5.5 ± 1.35 | – |
| CN1CCCN(c2nc3c(c(N4[C@@H]5CC[C@H]4CNC5)n2)CCN(C(=O)c2ccc(F)c4ccccc24)C3)CC1 [Compound 10c, (4-((1R,5S)-3,8-Diazabicyclo[3.2.1]octan-8-yl)-2-(4-methyl-1,4-diazepan-1-yl)-5,8-dihydropyrido[3,4-d]pyrimidin-7(6H)-yl)(4-fluoronaphthalen-1-yl)methanone] | 5.13 ± 0.4 | 1.4 ± 0.19 | 6.88 ± 0.19 | selectivity index (SI) (Panc1 (G12D)): 4.9; IC50 (AGS (G12D)): 3.4 ± 0.25 µM; IC50 (KRAS-G12D; [3]): > 10000 nM |

Reference: publication PMC12114952, “Design, Synthesis, Anticancer Evaluation and Molecular Docking of Pyrimidine, Pyrido[4,3-d]pyrimidine and 5,6,7,8-Tetrahydropyrido[3,4-d]pyrimidine Derivatives as Novel KRAS-G12D Inhibitors and PROTACs” (Pharmaceuticals, 2025)
